Experimental data reported in ChEMBL document CHEMBL4507265 (2021).

Experiments:
[1] = biological target: Calcium/calmodulin-dependent protein kinase type II subunit beta (Homo sapiens) (UniProt Q13554); conditions: Compound concentration 1000.0 nM
[2] = biological target: Cyclin-dependent kinase 13 (Homo sapiens) (UniProt Q14004); conditions: Compound concentration 1000.0 nM
[3] = biological target: Death-associated protein kinase 3 (Homo sapiens) (UniProt O43293); conditions: Compound concentration 1000.0 nM
Chain of Death-associated protein kinase 3 (Homo sapiens) (O43293 whole entry, looked up): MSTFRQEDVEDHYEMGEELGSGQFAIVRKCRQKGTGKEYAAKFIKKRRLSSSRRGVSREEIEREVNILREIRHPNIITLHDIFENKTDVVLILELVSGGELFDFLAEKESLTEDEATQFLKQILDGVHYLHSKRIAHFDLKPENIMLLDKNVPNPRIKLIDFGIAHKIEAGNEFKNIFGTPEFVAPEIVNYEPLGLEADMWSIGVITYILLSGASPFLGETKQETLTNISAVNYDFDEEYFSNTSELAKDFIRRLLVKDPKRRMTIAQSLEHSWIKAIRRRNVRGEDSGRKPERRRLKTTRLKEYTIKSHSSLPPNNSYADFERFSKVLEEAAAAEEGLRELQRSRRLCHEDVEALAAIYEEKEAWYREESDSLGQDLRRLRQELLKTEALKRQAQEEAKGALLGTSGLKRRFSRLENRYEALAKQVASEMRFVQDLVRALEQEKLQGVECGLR

[4] = test system: Epidermal growth factor receptor (Homo sapiens), P00533 [UNDEFINED MUTATION]; conditions: Compound concentration 1000.0 nM
[5] = biological target: Serine/threonine-protein kinase/endoribonuclease IRE1 (Homo sapiens) (UniProt O75460); conditions: Compound concentration 1000.0 nM
[6] = biological target: Tyrosine-protein kinase JAK1 (Homo sapiens) (UniProt P23458); conditions: Compound concentration 1000.0 nM
Chain of Tyrosine-protein kinase JAK1 (Homo sapiens) (P23458 whole entry, the tested form may be a part): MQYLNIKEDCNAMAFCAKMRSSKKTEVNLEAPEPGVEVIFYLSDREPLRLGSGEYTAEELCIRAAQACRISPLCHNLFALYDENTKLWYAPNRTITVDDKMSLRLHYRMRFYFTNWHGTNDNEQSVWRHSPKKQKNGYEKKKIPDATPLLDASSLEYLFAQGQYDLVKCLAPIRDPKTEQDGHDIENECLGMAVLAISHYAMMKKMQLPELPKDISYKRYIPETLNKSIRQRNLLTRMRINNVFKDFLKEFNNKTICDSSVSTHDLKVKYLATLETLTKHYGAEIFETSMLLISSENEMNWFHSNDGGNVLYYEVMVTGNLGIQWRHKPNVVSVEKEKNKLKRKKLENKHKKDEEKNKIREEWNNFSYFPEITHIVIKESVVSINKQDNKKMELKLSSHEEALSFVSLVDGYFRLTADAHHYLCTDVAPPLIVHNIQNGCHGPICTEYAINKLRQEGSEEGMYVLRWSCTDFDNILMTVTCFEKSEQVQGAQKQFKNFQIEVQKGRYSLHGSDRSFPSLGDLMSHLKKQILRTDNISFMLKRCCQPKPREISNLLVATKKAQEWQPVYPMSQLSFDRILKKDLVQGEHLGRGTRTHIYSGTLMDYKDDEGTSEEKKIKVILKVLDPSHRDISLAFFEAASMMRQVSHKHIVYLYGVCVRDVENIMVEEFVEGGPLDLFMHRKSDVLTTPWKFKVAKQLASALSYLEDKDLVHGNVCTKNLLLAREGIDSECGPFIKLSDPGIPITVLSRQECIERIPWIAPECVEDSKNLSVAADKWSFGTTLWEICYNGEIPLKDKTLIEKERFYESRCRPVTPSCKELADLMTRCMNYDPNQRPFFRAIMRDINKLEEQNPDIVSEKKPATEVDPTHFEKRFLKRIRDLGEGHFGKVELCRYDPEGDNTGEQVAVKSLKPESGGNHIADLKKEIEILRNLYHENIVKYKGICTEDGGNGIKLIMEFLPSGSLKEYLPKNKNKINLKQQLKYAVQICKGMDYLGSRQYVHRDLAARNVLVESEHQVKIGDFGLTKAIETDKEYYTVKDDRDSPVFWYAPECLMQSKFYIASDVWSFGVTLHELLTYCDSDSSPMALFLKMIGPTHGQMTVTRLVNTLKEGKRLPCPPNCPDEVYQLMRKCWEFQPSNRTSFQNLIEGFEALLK

[7] = biological target: LIM domain kinase 1 (Homo sapiens) (UniProt P53667); conditions: Compound concentration 1000.0 nM
Chain of LIM domain kinase 1 (Homo sapiens) (P53667 whole entry, looked up, the tested form may be a part): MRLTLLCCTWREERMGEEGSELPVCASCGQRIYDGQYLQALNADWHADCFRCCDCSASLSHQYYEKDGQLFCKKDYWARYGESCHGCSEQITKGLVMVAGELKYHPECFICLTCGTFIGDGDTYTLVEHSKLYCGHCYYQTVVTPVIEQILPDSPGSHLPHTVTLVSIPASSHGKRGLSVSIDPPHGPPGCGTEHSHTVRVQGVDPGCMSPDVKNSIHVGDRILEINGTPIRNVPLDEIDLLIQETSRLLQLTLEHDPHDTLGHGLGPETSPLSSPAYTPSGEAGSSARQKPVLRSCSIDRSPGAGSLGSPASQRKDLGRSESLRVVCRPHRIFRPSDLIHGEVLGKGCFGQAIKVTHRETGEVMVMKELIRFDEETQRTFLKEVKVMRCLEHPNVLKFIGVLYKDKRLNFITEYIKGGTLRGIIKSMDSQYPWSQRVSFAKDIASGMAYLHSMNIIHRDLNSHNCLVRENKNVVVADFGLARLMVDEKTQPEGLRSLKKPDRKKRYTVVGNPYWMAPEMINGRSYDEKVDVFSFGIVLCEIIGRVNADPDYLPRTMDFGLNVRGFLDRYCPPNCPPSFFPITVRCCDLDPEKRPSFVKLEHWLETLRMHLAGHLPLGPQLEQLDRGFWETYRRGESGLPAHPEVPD

[8] = biological target: Tyrosine-protein kinase Mer (Homo sapiens) (UniProt Q12866); conditions: Compound concentration 1000.0 nM
[9] = biological target: Serine/threonine-protein kinase PAK 1 (Homo sapiens) (UniProt Q13153); conditions: Compound concentration 1000.0 nM
Chain of Serine/threonine-protein kinase PAK 1 (Homo sapiens) (Q13153 whole entry): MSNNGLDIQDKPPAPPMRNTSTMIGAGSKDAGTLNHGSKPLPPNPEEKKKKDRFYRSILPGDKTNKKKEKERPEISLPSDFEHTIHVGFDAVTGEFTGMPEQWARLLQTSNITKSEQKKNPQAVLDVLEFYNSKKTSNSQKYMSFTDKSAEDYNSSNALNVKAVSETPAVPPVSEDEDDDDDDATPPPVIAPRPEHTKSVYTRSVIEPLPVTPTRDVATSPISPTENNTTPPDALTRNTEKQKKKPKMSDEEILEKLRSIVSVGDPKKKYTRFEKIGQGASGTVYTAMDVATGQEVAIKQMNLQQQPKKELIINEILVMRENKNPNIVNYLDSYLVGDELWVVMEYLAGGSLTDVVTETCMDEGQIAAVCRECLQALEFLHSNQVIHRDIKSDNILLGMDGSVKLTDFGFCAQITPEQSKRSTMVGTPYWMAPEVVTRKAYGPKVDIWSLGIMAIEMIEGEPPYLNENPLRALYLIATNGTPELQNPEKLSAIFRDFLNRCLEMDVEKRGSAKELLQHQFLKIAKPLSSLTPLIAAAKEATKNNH

[10] = biological target: Serine/threonine-protein kinase PLK1 (Homo sapiens) (UniProt P53350); conditions: Compound concentration 1000.0 nM
Chain of Serine/threonine-protein kinase PLK1 (Homo sapiens) (P53350 whole entry): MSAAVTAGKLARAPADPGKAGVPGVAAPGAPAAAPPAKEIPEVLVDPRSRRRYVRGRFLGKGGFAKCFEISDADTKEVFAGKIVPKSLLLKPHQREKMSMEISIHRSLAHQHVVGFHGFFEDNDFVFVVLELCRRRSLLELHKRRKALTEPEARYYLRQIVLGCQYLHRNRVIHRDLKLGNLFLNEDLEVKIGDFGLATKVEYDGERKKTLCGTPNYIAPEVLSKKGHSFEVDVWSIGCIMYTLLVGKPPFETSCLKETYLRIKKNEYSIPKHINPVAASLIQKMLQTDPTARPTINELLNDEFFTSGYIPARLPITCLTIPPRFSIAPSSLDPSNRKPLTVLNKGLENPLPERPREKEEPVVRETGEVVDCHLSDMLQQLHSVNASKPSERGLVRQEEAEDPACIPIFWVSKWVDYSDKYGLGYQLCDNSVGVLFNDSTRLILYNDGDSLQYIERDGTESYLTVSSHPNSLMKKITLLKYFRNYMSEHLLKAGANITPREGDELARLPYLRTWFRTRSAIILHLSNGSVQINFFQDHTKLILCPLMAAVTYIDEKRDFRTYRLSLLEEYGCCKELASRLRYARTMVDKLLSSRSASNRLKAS

[11] = biological target: Serine/threonine-protein kinase PRP4 homolog (Homo sapiens) (UniProt Q13523); conditions: Compound concentration 1000.0 nM
Chain of Serine/threonine-protein kinase PRP4 homolog (Homo sapiens) (Q13523 whole entry): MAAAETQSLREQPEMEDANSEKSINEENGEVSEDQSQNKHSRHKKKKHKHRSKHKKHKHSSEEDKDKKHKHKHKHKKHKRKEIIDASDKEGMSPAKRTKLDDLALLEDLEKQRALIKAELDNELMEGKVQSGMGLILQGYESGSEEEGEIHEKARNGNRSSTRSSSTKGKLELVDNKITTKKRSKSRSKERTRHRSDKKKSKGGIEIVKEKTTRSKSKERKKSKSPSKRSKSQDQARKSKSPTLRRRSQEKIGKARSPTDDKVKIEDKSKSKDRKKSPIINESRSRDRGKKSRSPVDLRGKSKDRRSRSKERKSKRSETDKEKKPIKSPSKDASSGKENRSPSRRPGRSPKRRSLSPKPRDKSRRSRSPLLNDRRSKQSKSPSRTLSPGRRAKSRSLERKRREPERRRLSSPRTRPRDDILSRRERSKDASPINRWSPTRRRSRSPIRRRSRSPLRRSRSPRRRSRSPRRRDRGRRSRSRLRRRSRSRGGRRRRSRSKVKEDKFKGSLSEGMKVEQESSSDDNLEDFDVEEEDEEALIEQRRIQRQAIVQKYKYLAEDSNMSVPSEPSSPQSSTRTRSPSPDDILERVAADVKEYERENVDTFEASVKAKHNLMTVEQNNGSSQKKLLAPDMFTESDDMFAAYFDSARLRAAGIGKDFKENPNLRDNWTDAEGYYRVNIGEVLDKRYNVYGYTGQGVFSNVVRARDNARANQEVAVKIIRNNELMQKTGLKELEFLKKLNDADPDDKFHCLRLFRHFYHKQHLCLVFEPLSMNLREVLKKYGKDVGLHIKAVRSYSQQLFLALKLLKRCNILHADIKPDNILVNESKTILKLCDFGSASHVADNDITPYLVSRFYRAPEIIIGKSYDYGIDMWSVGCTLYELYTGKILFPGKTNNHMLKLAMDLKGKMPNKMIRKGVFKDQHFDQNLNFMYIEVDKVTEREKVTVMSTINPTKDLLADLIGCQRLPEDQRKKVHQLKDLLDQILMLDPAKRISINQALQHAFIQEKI

[12] = biological target: Proto-oncogene tyrosine-protein kinase Src (Homo sapiens) (UniProt P12931); conditions: Compound concentration 1000.0 nM
[13] = biological target: Dual specificity testis-specific protein kinase 1 (Homo sapiens) (UniProt Q15569); conditions: Compound concentration 1000.0 nM
[14] = organism: Rattus norvegicus; experiment: Testosterone Eurofins-Panlabs radioligand binding assay; design: ligand concentration 1.5 nM; conditions: Compound concentration 10.0 uM
[15] = biological target: Epidermal growth factor receptor (Homo sapiens) (UniProt P00533); experiment: Inhibition of Epidermal Growth Factor (EGF) at 10 µM in the Eurofins-Panlabs radioligand binding assay (Eurofins_assay_225510); conditions: Compound concentration 10.0 uM
[16] = biological target: Glutamate receptor ionotropic, kainate (Rattus norvegicus) (UniProt P22756+Q01812+P42260+P42264+Q63273); experiment: Inhibition of Glutamate, Kainate at 10 µM in the Eurofins-Panlabs radioligand binding assay (Eurofins_assay_232700); conditions: Compound concentration 10.0 uM
[17] = biological target: Acetylcholine receptor subunit alpha (Homo sapiens) (UniProt P02708); experiment: Inhibition of Nicotinic Acetylcholine D1, Bungarotoxin at 10 µM in the Eurofins-Panlabs radioligand binding assay (Eurofins_assay_258700); conditions: Compound concentration 10.0 uM
[18] = organism: Oryctolagus cuniculus; experiment: Inhibition of Purinergic P2X at 10 µM in the Eurofins-Panlabs radioligand binding assay (Eurofins_assay_268700); format: protein assay; conditions: Compound concentration 10.0 uM
[19] = organism: Rattus norvegicus; experiment: Inhibition of Rolipram at 10 µM in the Eurofins-Panlabs radioligand binding assay (Eurofins_assay_268811); format: protein assay; design: ligand concentration 1.8 nM; conditions: Compound concentration 10.0 uM
[20] = biological target: Sigma non-opioid intracellular receptor 1 (Homo sapiens) (UniProt Q99720); experiment: Inhibition of Sigma 1 at 10 µM in the Eurofins-Panlabs radioligand binding assay (Eurofins_assay_278110); design: ligand concentration 8 nM; conditions: Compound concentration 10.0 uM
[21] = biological target: Sodium-dependent dopamine transporter (Homo sapiens) (UniProt Q01959); conditions: Compound concentration 10.0 uM
Chain of Sodium-dependent dopamine transporter (Homo sapiens) (Q01959 whole entry): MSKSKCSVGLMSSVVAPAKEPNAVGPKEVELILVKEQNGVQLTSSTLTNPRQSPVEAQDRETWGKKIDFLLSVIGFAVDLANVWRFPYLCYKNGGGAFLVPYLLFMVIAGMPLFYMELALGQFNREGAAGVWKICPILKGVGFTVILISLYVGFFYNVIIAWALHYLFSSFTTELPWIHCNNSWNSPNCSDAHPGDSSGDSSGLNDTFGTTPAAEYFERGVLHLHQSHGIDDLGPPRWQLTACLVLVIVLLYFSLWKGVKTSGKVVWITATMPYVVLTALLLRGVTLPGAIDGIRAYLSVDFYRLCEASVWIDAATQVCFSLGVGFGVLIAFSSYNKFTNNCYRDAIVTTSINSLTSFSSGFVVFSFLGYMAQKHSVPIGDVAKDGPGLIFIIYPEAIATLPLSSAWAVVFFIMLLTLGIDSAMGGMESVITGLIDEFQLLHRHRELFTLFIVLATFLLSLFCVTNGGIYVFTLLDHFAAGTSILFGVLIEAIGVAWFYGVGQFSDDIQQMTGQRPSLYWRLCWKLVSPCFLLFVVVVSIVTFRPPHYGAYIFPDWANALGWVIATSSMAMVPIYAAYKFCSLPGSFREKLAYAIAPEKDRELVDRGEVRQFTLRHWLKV

[22] = biological target: Adenosine receptor A1 (Homo sapiens) (UniProt P30542); conditions: Compound concentration 10.0 uM
[23] = biological target: Adenosine receptor A3 (Homo sapiens) (UniProt P0DMS8); conditions: Compound concentration 10.0 uM
[24] = biological target: T1, Alpha-2A adrenergic receptor (Homo sapiens) (UniProt P08913); conditions: Compound concentration 10.0 uM
T1 sequence (whole entry): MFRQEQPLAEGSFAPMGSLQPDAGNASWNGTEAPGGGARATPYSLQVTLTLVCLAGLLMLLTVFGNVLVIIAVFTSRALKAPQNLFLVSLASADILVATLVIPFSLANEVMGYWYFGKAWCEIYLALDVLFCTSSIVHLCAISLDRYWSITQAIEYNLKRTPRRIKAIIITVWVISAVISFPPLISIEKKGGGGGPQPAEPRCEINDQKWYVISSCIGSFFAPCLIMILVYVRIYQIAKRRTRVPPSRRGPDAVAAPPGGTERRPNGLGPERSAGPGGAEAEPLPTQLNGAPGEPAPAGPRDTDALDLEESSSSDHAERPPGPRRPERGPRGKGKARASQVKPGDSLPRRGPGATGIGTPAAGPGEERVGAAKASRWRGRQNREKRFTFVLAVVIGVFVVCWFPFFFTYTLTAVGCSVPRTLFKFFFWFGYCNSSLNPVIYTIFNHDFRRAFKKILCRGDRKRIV

[25] = biological target: Endothelin-1 receptor (Homo sapiens) (UniProt P25101); conditions: Compound concentration 10.0 uM
[26] = biological target: GABA-A receptor; anion channel (Rattus norvegicus) (UniProt O09028+P15431+P18506+P18508+P19969+P20236+P23574+P23576+P28471+P28473+P30191+P62813+P63079+P63138+Q91ZM7+Q9ES14); conditions: Compound concentration 10.0 uM
[27] = biological target: Mu-type opioid receptor (Homo sapiens) (UniProt P35372); conditions: Compound concentration 10.0 uM
[28] = biological target: Sodium-dependent dopamine transporter (Homo sapiens) (UniProt Q01959)
[29] = organism: Rattus norvegicus; conditions: Compound concentration 10.0 uM

Compound | residual activity [1] [%] | residual activity [2] [%] | residual activity [3] [%] | residual activity [5] [%] | residual activity [6] [%] | residual activity [7] [%] | residual activity [8] [%] | residual activity [9] [%] | residual activity [10] [%] | residual activity [11] [%] | residual activity [12] [%] | residual activity [13] [%] | other results
NS(=O)(=O)c1cc(NC(=O)C2(c3ccccc3Cl)CC2)ccc1Oc1cccc(Cl)c1 [BAY-207] | 100 | 100 | 100 | 61 | 76 | 100 | 70 | 79 | 92 | 68 | 88 | 100 | residual activity [4]: 75%
NS(=O)(=O)c1cc(NC(=O)Cc2ccccc2)ccc1Oc1cccc(Cl)c1 [BAY-1797] | 100 | 92 | 95 | 73 | 87 | 87 | 82 | 88 | 73 | 97 | 90 | 100 | inhibition [14]: 17%; inhibition [15]: 2%; inhibition [16]: 3%; inhibition [17]: -4%; inhibition [18]: 5%; inhibition [19]: 8%; inhibition [20]: 3%; inhibition [21]: 37%; inhibition [22]: 35%; inhibition [23]: 47%; inhibition [24]: 26%; inhibition [25]: 3%; inhibition [26]: 0%; inhibition [27]: 9%; inhibition ([28]; Compound concentration 3.0 uM): 60%; inhibition ([28]; Compound concentration 10.0 uM): 81%; inhibition [29]: -10%
